Structures can show the parent of a compound that is named as a salt.
Assays:
[1] = tested on: cultured human mast cells (CHMC); assay: CHMC low cell density IgE activation: tryptase and LTC4 assays; type: cell-based; details: Homo sapiens, Mast cell, Low Density CHMC, anti-IgE activation, tryptase readout; read-out: CHMC anti-IgE Tryptase
Method in brief: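 Cultured human mast cells at low density (1000-1500 per well) rested 1 h at 37° C, then stimulated with anti-IgE for 30 min at 37° C. Supernatant tryptase measured with fluorogenic substrate (30 min, room temperature); LTC4 quantified by ELISA on diluted supernatant.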

[2] = tested on: cultured human mast cells (CHMC); assay: CHMC low cell density ionomycin activation: tryptase assay; type: cell-based; details: Homo sapiens, Mast cell, Low Density CHMC, ionomycin activation, tryptase readout; read-out: CHMC Ionomycin Tryptase

With Oc1cccc(Nc2ncc(F)c(NCCSCc3c(F)cccc3Cl)n2)c1 [Compound R926724, N4-[2-[(2-Chloro-6-fluorobenzyl)thio]ethyl]-5-fluoro-N2-(3-hydroxyphenyl)-2,4-pyrimidinediamine] the IC50 [1] was 2060 nM and the IC50 [2] was > 10000 nM.
Fc1cnc(Nc2ccc3[nH]ccc3c2)nc1Nc1ccc2c(c1)OCCO2 [Compound R926748, N4-(3,4-Ethylenedioxyphenyl)-5-fluoro-N2-[(1H)-indol-5-yl]-2,4-pyrimidinediamine] was tested, and the IC50 [1] was 345 nM and the IC50 [2] was > 10000 nM.
Oc1cccc(Nc2nc(Nc3ccc4[nH]ccc4c3)ncc2F)c1 [Compound R926749, 5-Fluoro-N4-(3-hydroxyphenyl)-N2-[(1H)-indol-5-yl]-2,4-pyrimidinediamine] was tested, and the IC50 [1] was 472 nM and the IC50 [2] was > 10000 nM.
In the case of Fc1cnc(Nc2ccc3cc[nH]c3c2)nc1Nc1ccc2c(c1)OCCO2 [Compound R926750, N4-(3,4-Ethylenedioxyphenyl)-5-fluoro-N2-[(1H)-indol-6-yl]-2,4-pyrimidinediamine], the IC50 [1] is reported as 361 nM and the IC50 [2] is reported as > 10000 nM.
In the case of Oc1cccc(Nc2nc(Nc3ccc4cc[nH]c4c3)ncc2F)c1 [Compound R926751, 5-Fluoro-N4-(3-hydroxyphenyl)-N2-[(1H)-indol-6-yl]-2,4-pyrimidinediamine], the IC50 [1] is reported as 598 nM and the IC50 [2] is reported as > 10000 nM.
In the case of OB(O)c1cccc(Nc2nc(Nc3cccc(O)c3)ncc2F)c1 [Compound R926755, 5-Fluoro-N4-(3-dihydroxyborylphenyl)-N2-(3-hydroxyphenyl)-2,4-pyrimidinediamine], the IC50 [1] is reported as 1690 nM and the IC50 [2] is reported as > 10000 nM.
With OBc1cccc(Nc2nc(Nc3ccc4c(c3)OCCO4)ncc2F)c1 [Compound R926756, N2-(3,4-Ethylenedioxyphenyl)-5-fluoro-N4-(3-hydroxyborylphenyl)-2,4-pyrimidinediamine] the IC50 [1] was 1360 nM and the IC50 [2] was > 10000 nM.
In the case of COc1cc(Nc2ncc(F)c(Nc3cccc(O)c3)n2)cc(OC)c1OC [Compound R926761, 5-Fluoro-N4-(3-hydroxyphenyl)-N2-(3,4,5-trimethoxyphenyl)-2,4-pyrimidinediamine], the IC50 [1] is reported as 245 nM and the IC50 [2] is reported as > 10000 nM.
For COc1cc(Nc2ncc(F)c(Nc3ccc4c(c3)OCCO4)n2)cc(OC)c1OC [Compound R926762, N4-(3,4-Ethylenedioxyphenyl)-5-fluoro-N2-(3,4,5-trimethoxyphenyl)-2,4-pyrimidinediamine], the IC50 [1] was 386 nM and the IC50 [2] was > 10000 nM.
In the case of Oc1c(Cl)cc(Nc2ncc(F)c(Nc3ccc4c(c3)OCCO4)n2)cc1Cl [Compound R926763, N4-(3,4-Ethylenedioxyphenyl)-5-fluoro-N2-(3,5-dichloro-4-hydroxyphenyl)-2,4-pyrimidinediamine], the IC50 [1] is reported as 195 nM and the IC50 [2] is reported as > 10000 nM.
With CN(C)CCOc1cccc(Nc2ncc(F)c(Nc3ccc4c(c3)OCCO4)n2)c1 [Compound R926771, N2-[3-[2-(N, N-Dimethylamino)ethyloxy]phenyl]-N4-(3,4-Ethylenedioxyphenyl)-5-fluoro-2,4-pyrimidinediamine Hydrogen Chloride Salt] the IC50 [1] was 2050 nM and the IC50 [2] was > 10000 nM.
For Oc1cccc(Nc2nc(Nc3ccc(-n4cnc(Cl)c4Cl)cc3)ncc2F)c1 [Compound R926777, N2-[4-(4,5-Dichloro-1H-imidazol-1-yl)phenyl]-5-fluoro-N4-(3-hydroxyphenyl)-2,4-pyrimidinediamine], the IC50 [1] was 378 nM and the IC50 [2] was > 10000 nM.
CC(C)c1ccc(Nc2ncc(F)c(Nc3cccc(O)c3)n2)cc1 [Compound R926778, 5-Fluoro-N4-(3-hydroxyphenyl)-N2-(4-isopropylphenyl)-2,4-pyrimidinediamine] was tested, and the IC50 [1] was 414 nM and the IC50 [2] was > 10000 nM.
For O=C(NCC(O)CO)c1cc2cc(Nc3ncc(F)c(Nc4ccc5c(c4)OCCO5)n3)ccc2o1 (centres unmarked) [Compound R926783, N2-[2-(N-2,3-Dihydroxypropylamino)carbonylbenzofuran-5-yl]-N4-(3,4-ethylenedioxyphenyl)-5-fluoro-2,4-pyrimidinediamine], the IC50 [1] was 304 nM and the IC50 [2] was > 10000 nM.
CC(=O)Nc1cccc(OCCCNc2ncc(F)c(Nc3ccc4c(c3)OCCO4)n2)c1 [Compound R926787, N2-[3-(3-Acetamidophenoxy)propyl]-N4-(3,4-ethylenedioxyphenyl)-5-fluoro-2,4-pyrimidinediamine] was tested, and the IC50 [1] was 5420 nM and the IC50 [2] was > 10000 nM.
Fc1cnc(Nc2ccc(-n3cnc(Cl)c3Cl)cc2)nc1Nc1ccc2c(c1)OCCO2 [Compound R926788, N2-[4-(4,5-Dichloro-1H-imidazol-1-yl)phenyl]-N4-(3,4-ethylenedioxyphenyl)-5-fluoro-2,4-pyrimidinediamine] showed an IC50 [1] of 336 nM and an IC50 [2] of 6340 nM.
For COc1ccc(Nc2ncc(F)c(Nc3ccc4c(c3)OCCO4)n2)c(OC)c1 [Compound R926789, N2-(2,4-Dimethoxyphenyl)-N4-(3,4-ethylenedioxyphenyl)-5-fluoro-2,4-pyrimidinediamine], the IC50 [1] was 2320 nM and the IC50 [2] was > 10000 nM.
CC(C)c1ccc(Nc2ncc(F)c(Nc3ccc4c(c3)OCCO4)n2)cc1 [Compound R926790, N4-(3,4-Ethylenedioxyphenyl)-5-fluoro-N2-(4-isopropylphenyl)-2,4-pyrimidinediamine] showed an IC50 [1] of 462 nM and an IC50 [2] of 7410 nM.
With Cc1cc(Nc2ncc(F)c(Nc3ccc4c(c3)OCCO4)n2)c(C)cc1O [Compound R926792, N2-(2,5-Dimethyl-4-hydroxyphenyl)-N4-(3,4-ethylenedioxyphenyl)-5-fluoro-2,4-pyrimidinediamine] the IC50 [1] was 3200 nM and the IC50 [2] was > 10000 nM.
With COc1cc(Nc2nc(Nc3cccc(O)c3)ncc2F)cc(OC)c1 [Compound R926802, N4-(3,5-Dimethoxyphenyl)-N2-(3-hydroxyphenyl)-5-fluoro-2,4-pyrimidinediamine] the IC50 [1] was 1250 nM and the IC50 [2] was > 10000 nM.
In the case of CCOC(=O)c1cc2cccc(Nc3ncc(F)c(Nc4cc(OC)cc(OC)c4)n3)c2[nH]1 [Compound R926803, N4-(3,5-Dimethoxyphenyl)-N2-(2-ethoxycarbonylindol-7-yl)-5-fluoro-2,4-pyrimidinediamine], the IC50 [1] is reported as 1540 nM and the IC50 [2] is reported as > 10000 nM.
For CCOC(=O)c1cc2cccc(Nc3cc(Nc4ccc5c(c4)OCCO5)c(F)cn3)c2[nH]1 [Compound R926808, N2-(2-Ethoxycarbonylindol-7-yl)-N4-(3,4-ethylenedioxyphenyl)-5-fluoro-2,4-pyridinediamine], the IC50 [1] was 368 nM and the IC50 [2] was > 10000 nM.
For Fc1cnc(Nc2cccc(-c3cnco3)c2)nc1Nc1ccc2c(c1)OCCO2 [Compound R926813, N4-(3,4-Ethylenedioxyphenyl)-5-fluoro-N2-[3-(1,3-oxazol-5-yl)phenyl]-2,4-pyrimidinediamine], the IC50 [1] was 152 nM and the IC50 [2] was > 10000 nM.
CCOC(=O)c1cc2cccc(Nc3cc(Nc4cccc(O)c4)c(F)cn3)c2[nH]1 [Compound R926814, N2-(2-Ethoxycarbonylindol-7-yl)-5-fluoro-N4-(3-hydroxyphenyl)-2,4-pyridinediamine] was tested, and the IC50 [1] was 1100 nM and the IC50 [2] was > 10000 nM.
With Oc1cccc(Nc2nc(Nc3cccc(-c4cnco4)c3)ncc2F)c1 [Compound R926831, 5-Fluoro-N4-(3-hydroxyphenyl)-N2-[3-(1,3-oxazol-5-yl)phenyl]-2,4-pyrimidinediamine] the IC50 [1] was 133 nM and the IC50 [2] was 10000 nM.
For Oc1cccc(Nc2nc(Nc3cccc(-c4cc[nH]n4)c3)ncc2F)c1 [Compound R926841, 5-Fluoro-N4-(3-hydroxyphenyl)-N2-[3-(1H-pyrazol-3-yl)phenyl]-2,4-pyrimidinediamine], the IC50 [1] was 551 nM and the IC50 [2] was > 10000 nM.
In the case of Oc1cccc(Nc2nc(Nc3cccc(-c4nnn[nH]4)c3)ncc2F)c1 [Compound R926842, 5-Fluoro-N4-(3-hydroxyphenyl)-N2-[3-(tetrazol-5-yl)phenyl]-2,4-pyrimidinediamine], the IC50 [1] is reported as 7730 nM and the IC50 [2] is reported as > 10000 nM.
In the case of Fc1cnc(Nc2cccc(-c3nnn[nH]3)c2)nc1Nc1ccc2c(c1)OCCO2 [Compound R926843, 5-Fluoro-N4-(3,4-ethylenedioxyphenyl)-N2-[3-(tetrazol-5-yl)phenyl]-2,4-pyrimidinediamine], the IC50 [1] is reported as 7370 nM and the IC50 [2] is reported as > 10000 nM.
COc1ccc(Nc2ncc(F)c(Nc3ccc4c(c3)OCCO4)n2)c(C)c1 [Compound R926845, N4-(3,4-Ethylenedioxyphenyl)-5-fluoro-N2-(4-methoxy-2-methylphenyl)-2,4-pyrimidinediamine] showed an IC50 [1] of 2560 nM and an IC50 [2] of 7810 nM.
COc1cc(Nc2ncc(F)c(Nc3cccc(O)c3)n2)c(OC)cc1Cl [Compound R926857, N2-(4-Chloro-2,5-dimethoxyphenyl)-5-fluoro-N4-(3-hydroxyphenyl)-2,4-pyrimidinediamine] was tested, and the IC50 [1] was 1210 nM and the IC50 [2] was > 10000 nM.
For Oc1cccc(Nc2nc(Nc3cc(Cl)c(O)c(Cl)c3)ncc2F)c1 [Compound R926890, 5-Fluoro-N2-(3,5-dichloro-4-hydroxyphenyl)-N4-(3-hydroxyphenyl)-2,4-pyrimidinediamine], the IC50 [1] was 361 nM and the IC50 [2] was > 10000 nM.
With Cc1cc(O)cc(N(c2ccc3c(c2)OCCO3)c2nc(N)ncc2F)c1 [Compound R926893, N4-(3,4-Ethylenedioxyphenyl)-5-fluoro-N4-(3-hydroxy-5-methylphenyl)-2,4-pyrimidinediamine] the IC50 [1] was 10000 nM and the IC50 [2] was > 10000 nM.
For Fc1cc(Nc2ncc(F)c(Nc3ccc4c(c3)OCCO4)n2)cc(C(F)(F)F)c1 [Compound R926894, N4-(3,4-Ethylenedioxyphenyl)-5-fluoro-N2-(3-fluoro-5-trifluoromethylphenyl)-2,4-pyrimidinediamine], the IC50 [1] was > 10000 nM and the IC50 [2] was > 10000 nM.
In the case of Cc1cc(Nc2ncc(F)c(Nc3ccc4c(c3)OCCO4)n2)cc(C(F)(F)F)c1 [Compound R926895, N4-(3,4-Ethylenedioxyphenyl)-5-fluoro-N2-(3-methyl-5-trifluoromethylphenyl)-2,4-pyrimidinediamine], the IC50 [1] is reported as 339 nM and the IC50 [2] is reported as > 10000 nM.

— US10828301B2, “2,4-pyrimidinediamine compounds and their uses” (Rigel Pharmaceuticals, Inc, priority 2002, dated 2020)
